Data published in PubChem BioAssay (NCI).
Values joined by “and” are separate entries in the source; they are usually repeats but may differ in a detail not shown here. Identical values can stand only once.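 Method: 48-hour compound exposure of cells in 96-well plates, five concentrations, linear interpolation of endpoints. At the GI50, growth is halved. TGI: total growth inhibition.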

Assays:
Test in all cases: NCI-60 cell line screen, 48 h
A549 NSCLC = test system: A549 NSCLC
EKVX NSCLC = test system: EKVX NSCLC
HOP-92 NSCLC = test system: HOP-92 NSCLC
M14 melanoma = test system: M14 melanoma
MOLT-4 leukemia = test system: MOLT-4 leukemia
SF-268 CNS = test system: SF-268 CNS
SK-MEL-2 melanoma = test system: SK-MEL-2 melanoma
SN12C renal = test system: SN12C renal
TK-10 renal = test system: TK-10 renal
HCC-2998 colon = test system: HCC-2998 colon

Row | Compound | TGI (A549 NSCLC) | TGI (EKVX NSCLC) | TGI (HOP-92 NSCLC) | TGI (M14 melanoma) | TGI (MOLT-4 leukemia) | TGI (SF-268 CNS) | TGI (SK-MEL-2 melanoma) | TGI (SN12C renal) | TGI (TK-10 renal) | GI50 (A549 NSCLC) | GI50 (EKVX NSCLC) | GI50 (HCC-2998 colon) | TGI (HCC-2998 colon) | GI50 (HOP-92 NSCLC) | GI50 (M14 melanoma) | GI50 (MOLT-4 leukemia) | GI50 (SF-268 CNS) | GI50 (SN12C renal) | GI50 (TK-10 renal) | GI50 (SK-MEL-2 melanoma)
1 | Cc1ccc(-c2nc(-c3nccc4ccccc34)oc2-c2ccccc2)cc1 | > 100 µM | 64.5 µM | > 100 µM | > 100 µM | > 100 µM | > 100 µM | > 100 µM | 62.7 µM | > 100 µM |  |  |  |  |  |  |  |  |  |  | 
2 | Clc1ccc2c(c1)N(C1CCCN(Cc3ccccc3)C1)c1ccccc1S2 (centres undefined) | > 100 µM | 79.9 µM | 74.2 µM | 4.41 µM | > 100 µM | > 100 µM |  | > 100 µM | > 100 µM | 4.94 µM | 4.22 µM | 5.59 µM | 32.3 µM | 4.68 µM | 2 µM | 16.6 µM | 3.8 µM | 5.79 µM | 71.8 µM | 
3 | O=C(Nc1cc(Cl)cc(Cl)c1)c1cccc(NC2=C(Cl)C(=O)N(Cc3ccccc3)C2=O)c1 | > 100 µM |  | 85.7 µM | > 100 µM | > 100 µM | > 100 µM | > 100 µM | > 100 µM | > 100 µM | 36.3 µM |  | 37.1 µM | > 100 µM | 18.9 µM | 35.8 µM | 4.15 µM | 42.7 µM | 40 µM | 31.8 µM | 65.2 µM
4 | COc1cc2c3c(n(CCCNCCCNCCN)c(=O)c2cc1OC)-c1cc2c(cc1C3=O)OCO2 | > 100 µM | > 100 µM | > 100 µM | > 100 µM | > 100 µM | > 100 µM | > 100 µM | 64.3 µM | > 100 µM | > 100 µM | > 100 µM |  |  | 39.7 µM | 53.9 µM | 10.9 µM | > 100 µM | 19.8 µM | 53.7 µM | > 100 µM
5 | CC[C@H](C)[C@H](NC(=O)[C@H]1CCCCN1C)C(=O)N(C)[C@H](C[C@@H](OC(C)=O)c1cccc(C(=O)N[C@@H](Cc2ccccc2)C[C@H](C)C(=O)O)n1)C(C)C | > 25 µM | > 25 µM |  | < 0.0025 µM | > 25 µM | > 25 µM | > 25 µM | > 25 µM | > 25 µM |  | 0.00493 µM and 0.0025 µM | 0.00551 µM and 0.0025 µM | > 25 µM |  | < 0.0025 µM | 0.00364 µM and 0.0025 µM | 0.00435 µM and 0.0025 µM | 0.00417 µM and 0.0025 µM |  | 0.000774 µM and 0.0025 µM
6 | CCC(C)C1=C(O)[N+]2([O-])Oc3ccc(C4=C(O)C(=O)C(c5ccc(O)cc5)=C(O)C4=O)cc3OC2(C(C)CC)C(=O)N1O (centres undefined) | > 100 µM | > 100 µM | > 100 µM | 11.5 µM | 41.8 µM | > 100 µM |  |  | > 100 µM | 9.35 µM | 23.7 µM | 6.78 µM | 57.2 µM | 9.29 µM | 2.75 µM | 11 µM | 5.83 µM |  | 3.41 µM | 
7 | CNC(=O)c1c(F)cccc1Nc1nc(Nc2cc3c(cc2OC)CCN3C(=O)CN(C)C)nc2[nH]ccc12 | 14.4 µM |  | 1.6 µM | 3.37 µM | > 24.7 µM | 15.2 µM | 19.8 µM | 9.81 µM | 11.8 µM | 1.74 µM |  | 4.42 µM | 9.2 µM | 0.0309 µM | 1.64 µM | 3.01 µM | 5.44 µM | 3.88 µM | 4.76 µM | 4.87 µM
8 | COCCc1n(Cc2ccc3ccccc3c2)c2ccccc2[n+]1Cc1ccc2ccccc2c1 | 3.03 µM |  | 1.13 µM |  |  |  |  |  | 2.65 µM | 1.46 µM |  |  |  | 0.214 µM |  |  |  |  | 1.26 µM | 
9 | O=C(/C=C/c1ccccn1)c1ccc(OCc2nnc(-c3ccc(Cl)cc3)o2)cc1 | 4.82 µM |  | 6.33 µM | 3.87 µM | 6.68 µM |  | 8.61 µM | 5.8 µM | 6.24 µM | 2.06 µM |  | 1.8 µM | 3.26 µM | 2.35 µM | 1.99 µM | 2.91 µM |  | 2.41 µM | 2.68 µM | 3.29 µM
10 | COc1ccc(S(=O)(=O)Nc2c(/C=C\c3cc(OC)c(OC)c(OC)c3)ccc(OC)c2O)cc1 | > 100 µM |  | 39.7 µM |  | > 100 µM | 91.6 µM | 37.1 µM | > 100 µM | 59.1 µM | 0.0459 µM |  | 0.0316 µM | 29.9 µM | 1.6 µM |  | 0.0423 µM | 0.0838 µM | 0.0869 µM | 0.0732 µM | 0.0437 µM
11 | CC1=CP(=O)(c2ccccc2)C=C(C)C1=C(Cl)Cl (centres undefined) | > 100 µM |  |  | 17.9 µM | 21.6 µM | 42.4 µM |  | 81.8 µM | 43.3 µM |  |  |  | 29.8 µM |  |  |  |  |  |  | 
12 | C[N+](C)(C)c1cc[c]([Sn]([c]2ccc([N+](C)(C)C)cc2)([c]2ccc([N+](C)(C)C)cc2)[c]2ccc([N+](C)(C)C)cc2)cc1 | > 100 µM | > 100 µM | > 100 µM | > 100 µM |  | > 100 µM | > 100 µM | > 100 µM | > 100 µM | > 100 µM | > 100 µM | > 100 µM | > 100 µM | > 100 µM | > 100 µM |  | > 100 µM | > 100 µM | > 100 µM | > 100 µM
13 | COc1cc2c(c(OC)c1OC)-c1ccc(SC)c(=O)cc1[C@@H](NC(=O)C(F)(F)F)CC2 | > 100 µM | > 100 µM | 0.105 µM | 42.5 µM | > 27.2 µM | 63.9 µM |  | 16.5 µM | > 100 µM |  |  |  | > 71.3 µM |  |  |  |  |  |  | 
14 | COc1ccc2c(c1)/C(=C\c1c(-c3cc(OC)ccc3OC)nc3sccn13)C(=O)N2 | > 100 µM |  | 3.47 µM | 3.09 µM |  | 4.32 µM | 4.2 µM |  | 3.14 µM | 48.6 µM |  |  |  | 1.76 µM | 7.14 µM and 1.71 µM |  | 2.08 µM |  | 1.76 µM | 1.77 µM
15 | COc1ccc(/C=C/C(=O)c2c(-c3ccccc3)nn(C)c(=O)c2N2CCOCC2)cc1 | > 100 µM | > 100 µM | > 100 µM | > 100 µM | > 100 µM | > 100 µM |  | > 100 µM | > 100 µM |  |  |  |  |  |  |  |  |  |  | 
16 | NCCCNc1nc2ccccc2c2c(=O)c3cccc(Cl)c3sc12 |  | 2.8 µM | 2.63 µM | 3.06 µM |  |  | 3.81 µM | 3.05 µM | 3.95 µM |  | 1.43 µM | 1.48 µM | 2.98 µM | 1.19 µM | 1.61 µM |  |  | 1.52 µM | 2.31 µM | 1.88 µM
